Laboratory results: patent publication US11117901B2, “Substituted pyrazolo[4,3-h]quinazolines as choline kinase inhibitors” (NERVIANO MEDICAL SCIENCES S.R.L., priority 2017, dated 2021)

Key:
Δ49N-hChoKα = biological target: T1, Δ49N-hChoKα (Homo sapiens, UniProt P35790); assay: Biochemical kinase inhibition assay (Kinase-Glo luminescent) on Δ49N-hChoKα; conditions: recombinant Δ49N-hChoKα 2.2 nM, ATP 5 μM, choline 5 μM, 60 min rt; read-out: ChoKα IC50
T1 construct: cDNA fragment 362-1534, corresponding to aminoacids 50 457; GST (N, cleaved yes); PreScission Protease recognition site (N); made in house; host or cells: Escherichia coli BL21pLysS (DE3)
T1 sequence (P35790 50-439 isoform P35790-2): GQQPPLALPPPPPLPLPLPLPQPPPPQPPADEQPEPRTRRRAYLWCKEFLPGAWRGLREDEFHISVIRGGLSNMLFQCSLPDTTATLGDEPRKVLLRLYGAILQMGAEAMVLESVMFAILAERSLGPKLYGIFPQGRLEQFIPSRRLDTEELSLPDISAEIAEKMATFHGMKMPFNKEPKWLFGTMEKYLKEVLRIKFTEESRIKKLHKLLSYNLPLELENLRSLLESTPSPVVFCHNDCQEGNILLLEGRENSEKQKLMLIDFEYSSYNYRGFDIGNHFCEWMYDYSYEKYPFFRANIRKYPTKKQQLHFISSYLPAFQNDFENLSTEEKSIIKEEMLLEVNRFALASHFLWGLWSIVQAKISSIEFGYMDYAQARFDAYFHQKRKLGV
Protocol: (§1) HumanΔ49ChoKα ([…]Δ49N-hChoKα) cDNA fragment 362-1534, corresponding to aminoacids 50 457 (J. Mol. Biol. 2006, 364, 136-151), and hChoKβ full length (FL), corresponding to aminoacids 2-395 ((PLoS ONE 2009, 4, e7819), were amplified by PCR from human library and cloned, inserting upstream a Prescission Protease recognition site, in pDonor 221 vector, using the Gateway Technology® (Invitrogen). After sequence control, LR reaction was performed in the final expression pGEX 2Tg vector. Both the proteins were expressed in Escherichia coli BL21pLysS (DE3) strain in auto-induction (Kessler) medium in the presence of […] carbenicillin at 25° C. for 16 h. Cells were harvested by centrifugation, the pellet was re-suspended in Lysis buffer (50 mM Tris-HCl pH 7.8, 150 mM NaCl, 10% glycerol, 0.2% CHAPS, 20 mM DTT, Protease Inhibitor Cocktail Tablets from Roche Biochemicals) and lysed by Gaulin homogenizer (Niro Soavi). The lysate was cleared by centrifugation. The supernatant was added to GSH resin and let flow by gravity. The GSH resin was washed with 5 column volume (CV) of cold wash buffer (50 mM Tris-HCl pH 7.8, 150 mM NaCl, 10% glycerol), then with 10 CV of the same buffer containing 2 mM of DTT. Both GST-Δ49N-hChoKα and hChoKβ were subjected to on-column cleavage of the GST tag with Prescission Protease overnight. The eluted cleaved proteins were further purified by ion exchange (ResQ 6 mL chromatography column from GE healthcare) with a gradient from 50 to 500 mM NaCl in 30 CV. The fractions containing […]Δ49N-hChoKα or hChoKβ were pooled, concentrated and gel filtered on a Superdex200 16/60 (GE Healthcare). The final protein concentration was estimated using the Bradford assay. All the samples purified were resolved by SDS-PAGE.
(§2) Biochemical Kinase inhibition Assay on Δ49N-hChoKα and hChoKβFL
(§3) The biochemical activity of compounds against Δ49N-ChoKα and ChoK3 FL were determined using the Kinase-Glo™ Luminescent Kinase Assay (Promega cat. V6711). The assay is based on incubation of the recombinant Δ49N-hChoKα and hChoKβ FL produced in house, 2.2 nM and 30 nM, respectively, with the specific substrates, choline (Sigma-Aldrich-C7017) and ATP, followed by quantification, at the end of reaction time, of the residual not reacted ATP.
(§4) Compounds were 3-fold serially diluted from 10 to 0.0005 μM, then incubated for 60 minutes at room temperature in the presence of ATP 5 μM, choline (5 μM for ChoKα and 20 μM for ChoKβ) and enzyme in a final volume of 19 μL of kinase buffer (50 mM Hepes pH 7.5, 10 mM MgCl2, 1 mM DTT, 3 μM Na3VO4 and 0.2 mg/mL BSA). The final concentration of DMSO was 1%. The assay was run in a robotized format on 384-well plates (Perkin Elmer cat. #6005301).
(§5) At the end of the incubation, an amount of 19 μL of KinaseGlo Reagent was added to each well to stop the reaction and after 30 minutes the luminescence signal was measured using ViewLux reader (Perkin Elmer).
(§6) All information about plate dilution, distribution and raw data of inhibition are tracked via barcode reading and stored in an Oracle DB. The data per each molecule are analyzed by an internally customized version of the SW package “Assay Explorer” which provides sigmoidal fittings of the ten-dilution curves for IC50 determination using a 4 parameter logistic equation: y=bottom+(top−bottom)/(1+10^((log IC50−x)*slope)) where x is the logarithm of the inhibitor concentration, y is the response; y starts at bottom and goes to top with a sigmoid shape.

hChoKβ FL = biological target: T2, hChoKβ FL (Homo sapiens, UniProt Q9Y259); assay: Biochemical kinase inhibition assay (Kinase-Glo luminescent) on hChoKβ FL; conditions: recombinant hChoKβ FL 30 nM, ATP 5 μM, choline 20 μM, 60 min rt; read-out: ChoKβ IC50
T2 construct: hChoKβ full length (FL), corresponding to aminoacids 2-395; GST (N, cleaved yes); PreScission Protease recognition site (N); made in house; host or cells: Escherichia coli BL21pLysS (DE3)
T2 sequence (Q9Y259 2-395): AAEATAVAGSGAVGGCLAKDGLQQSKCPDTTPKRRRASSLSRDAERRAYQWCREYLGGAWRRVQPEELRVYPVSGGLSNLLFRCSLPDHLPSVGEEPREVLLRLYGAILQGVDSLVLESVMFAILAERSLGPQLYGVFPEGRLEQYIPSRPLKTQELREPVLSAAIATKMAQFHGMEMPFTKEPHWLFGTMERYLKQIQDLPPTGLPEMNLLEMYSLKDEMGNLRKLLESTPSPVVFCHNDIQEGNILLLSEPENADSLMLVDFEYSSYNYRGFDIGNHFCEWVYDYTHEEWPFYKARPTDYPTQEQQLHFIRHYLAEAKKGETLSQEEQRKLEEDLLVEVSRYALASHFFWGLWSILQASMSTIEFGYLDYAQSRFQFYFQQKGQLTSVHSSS
Protocol: as §1, §2, §3, §4, §5, §6

Row | SMILES | IC50 (Δ49N-hChoKα) | IC50 (hChoKβ FL)
1 | CC1CCCN(C2CCN(C(=O)Cc3csc(NC(=O)c4n[nH]c5c4C(C)(C)Cc4cnc(N)nc4-5)n3)CC2)C1 (stereo not shown) [compound 224] | 0.005 µM | 0.213 µM
2 | CC1(C)Cc2cnc(N)nc2-c2[nH]nc(C(=O)Nc3ccc(C(=O)N[C@H]4CC[C@H](O)CC4)cc3)c21 [compound 28] | 0.511 µM | 3.11 µM
3 | CC1(C)Cc2cnc(N)nc2-c2[nH]nc(C(=O)Nc3nc(CC(=O)N4CCC(N5CCCCCC5)CC4)cs3)c21 [compound 47] | 0.002 µM | 0.086 µM
4 | CC1(C)Cc2cnc(N)nc2-c2[nH]nc(C(=O)Nc3nc(C(F)(F)C(=O)N4CCC(N5CCCCC5)CC4)cs3)c21 [compound 183] | 0.013 µM | 0.654 µM
5 | CN1CCC(NC(=O)Cc2csc(NC(=O)c3n[nH]c4c3C(C)(C)Cc3cnc(N)nc3-4)n2)CC1 [compound 86] | 0.057 µM | 1.39 µM
6 | CC1(C)Cc2cnc(N)nc2-c2[nH]nc(C(=O)Nc3ccc(C(=O)NC4CCOCC4)cc3)c21 [compound 11] | 0.195 µM | 0.395 µM
7 | CC1(C)Cc2cnc(N)nc2-c2[nH]nc(C(=O)Nc3nc(C4(C(=O)O)CC4)cs3)c21 [compound 129] | 0.22 µM | > 10 µM
8 | CC1(C)Cc2cnc(N)nc2-c2[nH]nc(C(=O)Nc3nc(CC(=O)N4CCC(N5CCCC5)CC4)cs3)c21 [compound 37] | 0.003 µM | 0.069 µM
9 | CC1(C)Cc2cnc(N)nc2-c2[nH]nc(C(=O)Nc3nc(CC(=O)N4CCC(N5CCC(F)(F)CC5)CC4)cs3)c21 [compound 229] | 0.018 µM | 0.84 µM
10 | CC1(C)Cc2cnc(N)nc2-c2[nH]nc(C(=O)Nc3nc(CC(=O)N4CCN(C5CCCCC5)CC4)cs3)c21 [compound 150] | 0.006 µM | 0.352 µM
11 | CN(C)[C@@H]1CCN(C(=O)Cc2csc(NC(=O)c3n[nH]c4c3C(C)(C)Cc3cnc(N)nc3-4)n2)C1 [compound 116] | 0.004 µM | 0.077 µM
12 | CC1(C)Cc2cnc(N)nc2-c2[nH]nc(C(=O)Nc3cccc(CC(=O)N4CCC(N5CCCCC5)CC4)c3)c21 [compound 120] | 0.019 µM | 0.913 µM

The remaining molecules from weak to strong by IC50 (Δ49N-hChoKα), led by results:

Row | IC50 (Δ49N-hChoKα) | IC50 (hChoKβ FL) | SMILES
13 | 0.594 µM | > 10 µM | CN(C)[C@@H]1CCN(Cc2csc(NC(=O)c3nn(C)c4c3C(C)(C)Cc3cnc(N)nc3-4)n2)C1 [compound 147]
14 | 0.198 µM | 0.934 µM | CCOC(=O)Cc1ccc(NC(=O)c2n[nH]c3c2C(C)(C)Cc2cnc(N)nc2-3)cc1 [compound 96]
15 | 0.142 µM | 2.16 µM | CC1(C)Cc2cnc(N)nc2-c2[nH]nc(C(=O)Nc3nc(CN4CCC(N5CCCCC5)CC4)cs3)c21 [compound 143]
16 | 0.073 µM | 1.42 µM | CC1(C)Cc2cnc(N)nc2-c2[nH]nc(C(=O)Nc3nc(CC(N)=O)cs3)c21 [compound 94]
17 | 0.057 µM | 1.29 µM | CC1(C)Cc2cnc(N)nc2-c2[nH]nc(C(=O)Nc3ccc(CC(=O)N4CCC(N5CCCCC5)CC4)cc3)c21 [compound 98]
18 | 0.005 µM | 3.16 µM | CC1CCN(C2CCN(C(=O)Cc3csc(NC(=O)c4nn(C)c5c4C(C)(C)Cc4cnc(N)nc4-5)n3)CC2)CC1 [compound 80]
19 | 0.004 µM | 0.184 µM | CC1(C)Cc2cnc(N)nc2-c2[nH]nc(C(=O)Nc3nc(COC4CCN(C5CCCCCC5)CC4)cs3)c21 [compound 223]
20 | 0.003 µM | 0.592 µM | CC1(C)Cc2cnc(N)nc2-c2[nH]nc(C(=O)Nc3ccc(CNc4ccc(CN5CCC(N6CCCCC6)CC5)cc4)cc3)c21 [compound 126]
